Measured values taken from article PMC3880013, “Toward an Understanding of Agonist Binding to Human Orexin-1 and Orexin-2 Receptors with G-Protein-Coupled Receptor Modeling and Site-Directed Mutagenesis” (Biochemistry, 2013).
Like-named read-outs stand apart in the source and are kept apart here. Marks after values point to notes of the source that are not given here. Where no end group is shown, it is not given here.

Tests used:
[1] = tested on: hOX1 Q179A; test: Calcium flux assay, CHO-K1 cells stably expressing Orexin receptor mutant; format: cell-based, human; details: hOX1 Q179A (4.60) vs wild type, CHO-K1, Fluo-4AM, this work
Protocol: (§1) A combination of overlap and mismatch polymerase chain reaction (PCR) was used to introduce mutations into the corresponding Orexin-1 and Orexin-2 cDNAs as described by us previously.[62] Each mutation was made via the generation of two overlapping PCR fragments with PfuUltra II Fusion HS DNA Polymerase (Strategene). The two products were extracted, and a second round of PCR was performed via combination of both fragments with 5′ and 3′ gene specific primers (containing BamHI and NotI restriction sites, respectively). The resulting gel-purified products were then cloned into expression vector pFB-Neo for subsequent generation of stable cell lines. Constructs were confirmed via sequencing. Each verified cDNA was subsequently used to generate single, stably expressing clones in the CHO-K1 cell line.
(§2) Standard calcium flux assays were used to assess the functionality of each OX receptor mutant. Each CHO-K1 Orexin mutant was seeded into tissue culture-treated, 384-well, black clear-bottom plates (CellBind Corning 7086), at a density of 7500 cells/well in culture medium and maintained in an incubator (5% CO2 at 37 °C) overnight. The cell medium was removed, and the cells were incubated in 20 μL of assay buffer (4 μM Fluo-4AM in HBSS with 0.1% BSA) for 90 min at 37 °C. After incubation, the dye was removed and 45 μL of fresh buffer, without dye, was applied. Antagonists (5 μL) were applied, and after incubation for an additional 20 min at 37 °C, 20 μL of receptor specific agonists was applied and the calcium flux monitored using a Flex Station (Molecular Devices) over a period of 1 min. In all cases, the EC80 specific for the individual mutant as determined in previous experiments was reported.

[2] = tested on: hOX1 Y311F; test: as above; format: cell-based, human; details: hOX1 Y311F (6.48) relative to wild type, CHO-K1, Fluo-4AM, this work
Protocol: as §1, §2

[3] = tested on: hOX2 F227W; test: as above; format: cell-based, human; details: hOX2 F227W (5.42) relative to wild type, CHO-K1, Fluo-4AM, this work
Protocol: as §1, §2

[4] = tested on: hOX2 Q134A; test: as above; format: cell-based, human; details: hOX2 Q134A (3.32) relative to wild type, CHO-K1, Fluo-4AM, this work
Protocol: as §1, §2

[5] = tested on: hOX2 Q187A; test: as above; format: cell-based, human; details: hOX2 Q187A (4.60) relative to wild type, CHO-K1, Fluo-4AM, this work
Protocol: as §1, §2

[6] = tested on: hOX1 A127T; details: hOX1 A127T (3.33) relative to wild type; [Ca2+]i response; ref 37 Malherbe et al.; cited from earlier work
Text: (§3) Table 1 Comparison of the Effects of Different Mutations in hOX1 and hOX2 on the Binding Potencies of Orexin-A and Orexin-B ^a | column: hOX1 / ratio ^b of Orexin-A

[7] = tested on: hOX1 Q126A; details: hOX1 Q126A (3.32) relative to wild type; [Ca2+]i response; ref 37 Malherbe et al.; cited from earlier work
Text: as §3

[8] = tested on: hOX1 Y348A; details: hOX1 Y348A (7.43) relative to wild type; [Ca2+]i response; ref 37 Malherbe et al.; cited from earlier work
Text: as §3

[9] = tested on: hOX2 W214A; set-up: method as in earlier work; details: hOX2 W214A (45.54) relative to wild type, [Ca2+]i response, ref 37 Malherbe et al., cited from earlier work
[10] = tested on: hOX2 F228A; details: hOX2 F228A (5.43) relative to wild type; [Ca2+]i response; ref 37 Malherbe et al.; cited from earlier work
Text: (§4) Table 1 Comparison of the Effects of Different Mutations in hOX1 and hOX2 on the Binding Potencies of Orexin-A and Orexin-B ^a | column: hOX2 / ratio ^b of Orexin-A

[11] = tested on: hOX2 I320A; details: hOX2 I320A (6.51) relative to wild type; [Ca2+]i response; ref 37 Malherbe et al.; cited from earlier work
Text: as §4

[12] = tested on: hOX2 S139A; details: hOX2 S139A (3.37) relative to wild type; [Ca2+]i response; ref 37 Malherbe et al.; cited from earlier work
Text: as §4

[13] = tested on: hOX2 V138A; details: hOX2 V138A (3.36) relative to wild type; [Ca2+]i response; ref 37 Malherbe et al.; cited from earlier work
Text: as §4

[14] = tested on: hOX2 V353A; details: hOX2 V353A (7.42) relative to wild type; [Ca2+]i response; ref 37 Malherbe et al.; cited from earlier work
Text: as §4

[15] = tested on: hOX2 Y317F; details: hOX2 Y317F (6.48) relative to wild type; [Ca2+]i response; ref 37 Malherbe et al.; cited from earlier work
Text: as §4

[16] = tested on: hOX2 Y232A; set-up: method as in 2 sources, one per row (each row's own in cited_ref): ref 37 Malherbe et al. ||| ref 37 = [37]; PMID 20404073; doi:10.1124/mol.110.064584; Malherbe P.; Roche O.; Marcuz A.; Kratzeisen C.; Wettstein J. G.; Bissantz C. ( 2010 ) Mapping the Binding Pocket of Dual Antagonist Almorexant to Human Orexin 1 and Orexin 2 Receptors: Compariso; details: cited from earlier work; for ratio EC50(mut)/EC50(WT): hOX2 Y232A (5.47) relative to wild type, [Ca2+]i response, ref 37 Malherbe et al.

**Q.** Which “fold improvement in potency relative to wild type” value [1] does the source give for “Orexin-A (QPLPDCCRQKTCSCRLYELLHGAGNHAAGILTL; ends and bridges not checked; cysteine pairing not given here; UniProt O43612 34-66, looked up) [hypothalamic neuropeptide, 33 amino acids, two intramolecular disulfide bonds C6-C12 and C7-C14; natural OX1/OX2 agonist]” here?
**A.** 17.8 fold improvement

**Q.** And the “ratio EC50(mut)/EC50(WT)” value [2]?
**A.** 1.6 ^d fold

**Q.** What about the “ratio EC50(mut)/EC50(WT)” value [3] of the same substance?
**A.** 84.2 ^d fold

**Q.** And the “ratio EC50(mut)/EC50(WT)” value [4]?
**A.** 15.1 fold

**Q.** What about the “ratio EC50(mut)/EC50(WT)” value [5] of the same substance?
**A.** 1.3 ^d fold

**Q.** And the “ratio EC50(mut)/EC50(WT)” value [6]?
**A.** 1.8 ^c fold

**Q.** What about the “ratio EC50(mut)/EC50(WT)” value [7] of the same substance?
**A.** 2.4 ^c fold

**Q.** What about the “ratio EC50(mut)/EC50(WT)” value [8] of the same substance?
**A.** 8.7 ^c fold

**Q.** And the “ratio EC50(mut)/EC50(WT)” value [9]?
**A.** 62.4 ^c fold

**Q.** What about the “ratio EC50(mut)/EC50(WT)” value ([9]; listed as OxA) of the same substance?
**A.** 62.4 fold

**Q.** What about the “ratio EC50(mut)/EC50(WT)” value [10] of the same substance?
**A.** 3.0 ^c fold

**Q.** What about the “ratio EC50(mut)/EC50(WT)” value [11] of the same substance?
**A.** 0.9 ^c fold

**Q.** What about the “ratio EC50(mut)/EC50(WT)” value [12] of the same substance?
**A.** 2.5 ^c fold

**Q.** What about the “ratio EC50(mut)/EC50(WT)” value [13] of the same substance?
**A.** 4.4 ^c fold

**Q.** What about the “ratio EC50(mut)/EC50(WT)” value [14] of the same substance?
**A.** 1.9 ^c fold

**Q.** What about the “ratio EC50(mut)/EC50(WT)” value [15] of the same substance?
**A.** 1.3 ^c fold

**Q.** And the “ratio EC50(mut)/EC50(WT)” value [16]?
**A.** 28.4 ^c fold

**Q.** What about the “ratio EC50(mut)/EC50(WT)” value ([16]; listed as OxA) of the same substance?
**A.** 28.4 fold

**Q.** And the “Emax (decreased)” value ([16]; hOX2 Y232A compared with WT)?
**A.** 44.9%
